According to patent US10973863B2, “Method for regulating, preventing and/or treating pulmonary injury” (SINPHAR PHARMACEUTICAL CO., LTD., priority 2017, dated 2021):

What was measured:
pro-form MMP-9 = assay: Western blot: pro-form MMP-9 expression in LPS-treated NR8383 cells; format: cell-based, rat; details: 0.01 μg/mL LPS; 6.25 to 50 μg/mL; 24 hours
Description: (§1) Rat alveolar macrophage NR8383 cells were divided into six groups and separately cultivated with the following media for 24 hours: • (1) Control group: a macrophage growth medium containing 0.01 μg/mL LPS; • (2) Positive control group: a macrophage growth medium containing 0.01 μg/mL LPS and 1 μM Dex; and • (3) Extract A group (including four sub-groups): a macrophage growth medium containing 0.01 μg/mL LPS and the extract A provided by [preparation example A-2-2], wherein the extract A is present in the four sub-groups at a concentration of 6.25, 12.5, 25 and 50 μg/mL respectively.
(§2) Thereafter, the proteins in the cells of each group were extracted and then subjected to a Western blot to measure the expression level of pro-form MMP-9 (i.e., the zymogen form of MMP-9), active-form MMP-9 and MMP-12. The relative expression level of pro-form MMP-9, active-form MMP-9 and MMP-12 of each group was calculated by using the results of the control group as a basis (i.e., the expression level of control group was served as 1-fold).
(§3) Rat alveolar macrophage NR8383 cells were divided into ten groups and separately cultivated with the following media for 24 hours:
(§4) (1) Control group: a macrophage growth medium containing 0.01 μg/mL LPS;
(§5) (2) Positive control group: a macrophage growth medium containing 0.01 μg/mL LPS and 1 μM Dex; […]

MMP-12 = assay: Western blot: MMP-12 expression in LPS-treated NR8383 cells; format: cell-based, rat; details: 0.01 μg/mL LPS; 6.25 to 50 μg/mL; 24 hours
Description: as §1, §2, §3, §4, §5

For `C=C(CC[C@@H](C(=O)O)[C@H]1[C@H](O)C[C@@]2(C)C3=CC[C@@H](C(=C)C)[C@](C)(CCC(=O)O)C3=CC[C@]12C)C(C)C` [PAA, poricoic acid A], the “Expression level of pro-form MMP-9 in comparison with the control group (in words)” value (pro-form MMP-9) was “effective in inhibiting” and the “Expression level of MMP-12 (in words)” value (MMP-12) was “effective in inhibiting”.
